Test results taken from US20190302114A1, “METHOD FOR DETECTING THE PRESENCE OF MYC[…] IN SAMPLE USING I[…] PHO[…]” (KEI INTERNATIONAL LIMITED, priority 2016, published 2019).

Assays:
Assay type in all cases: binding
[1] = tested on: antibodies against mycobacterial material in human serum; test: ELISA with antigen immobilised on ELISA plates, rabbit anti-human IgM HRP as secondary antibody; settings: for tuberculosis specific binding of antibodies to the immobilised antigen: overall conclusion from TB patient versus healthy samples; for background ELISA signal (absorbance at 450 nm) in healthy persons: serum of healthy persons, 1:20, 'lower' is relative to immobilised mycolic acid
[2] = tested on: antibodies against mycobacterial material in human serum; test: ELISA with diacyl glycolipid antigen of formula (XIII) immobilised via the terminal thio group
[3] = tested on: antibodies against mycobacterial material in human serum; test: ELISA with antigen immobilised on ELISA plates, rabbit anti-human IgG HRP as secondary antibody
[4] = serum of smear positive TB patients 1-9 (+)

## 2-palmitoyl-3-hydroxyphthioceranoyl-2′-sulfate-α-α′-D-trehalose [Ac2SGL]
[1]
  tuberculosis specific binding of antibodies to the immobilised antigen: very high tuberculosis specific binding
  background ELISA signal (absorbance at 450 nm) in healthy persons: markedly lower
[1]; serum of smear negative TB patients 11-18 (−)
  absorbance signal of samples from smear negative patients versus healthy persons: significantly higher than the signal of the healthy persons
[1]; [4]
  absorbance signal of samples from smear positive patients versus healthy persons: higher than the signal of the healthy persons

## C/C(=C\C[n+]1cnc2c(ncn2[C@@H]2O[C@H](CO)C(O)[C@@H]2O)c1N)CC[C@@]1(C)[C@@H]2CCCC(C)(C)C2=CC[C@@H]1C (stereo partly shown) [1-tuberculosinyladenosine]
[1]
  tuberculosis specific binding of antibodies to the immobilised antigen: very high tuberculosis specific binding
  background ELISA signal (absorbance at 450 nm) in healthy persons: markedly lower

## CCCCCCCCCCCCCCCCCC[C@H](C)C[C@H](C)[C@@H](O)[C@H](C)C(=O)O[C@@H]1C(OC(=O)CCCCCCCCCCCCCCCS)[C@@H](O[C@H]2OC(CO)[C@@H](O)C(O)[C@H]2O)OC(CO)[C@H]1O (stereo partly shown) [formula (XIII)]
[2]; healthy persons (n=4)
  background ELISA signal in healthy persons: markedly lower
[2]; overall conclusion, most significant in smear negative samples
  tuberculosis specific binding of antibodies to the immobilised antigen: very high tuberculosis specific binding
[2]; smear negative patients (n=32), very low standard deviation
  absorbance signal of samples from smear negative patients versus healthy persons: significantly higher than the signal of the healthy persons
[2]; smear positive patients (n=9), rather high standard deviation
  absorbance signal of samples from smear positive patients versus healthy persons: higher than the signal of the healthy persons

## CCCCCCCC(C)CCCC(C)CCCC(C)CCCC(C)CCCC(C)CCCOP(=O)(O)O[C@@H]1O[C@H](CO)[C@@H](O)[C@H](O)[C@@H]1O (stereo partly drawn) [β-mannosyl phosphomycoketide]
[3]; overall conclusion, in particular smear positive samples
  tuberculosis specific binding of antibodies to the immobilised antigen: very high tuberculosis specific binding
[3]; serum of healthy persons, 1:20, 'lower' is relative to immobilised mycolic acid
  background ELISA signal (absorbance at 450 nm) in healthy persons: markedly lower
[3]; [4]
  absorbance signal of samples from smear positive patients versus healthy persons: significantly higher than the signal obtained in the healthy persons
